Measured values as given in the supplement of paper PMC7695840.
Values joined by “and” are separate entries in the source; they are usually repeats but may differ in a detail not shown here. Equal entries are not always repeated. Structures can show the parent of a compound that is named as a salt.

Legend:
[1] = tested on: Staphylococcus aureus MW2 (mecA+); experiment: IC50 (growth, competition assay); conditions: cefoxitin: subinhibitory
How it was run: (§1)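 Two fluorescent S. aureus MW2 strains, one carrying and one lacking the resistance gene, were pre-induced, mixed 1:1 and grown unshaken in LB in 1536-well plates for 20 h at 37 °C and 90% humidity with a subinhibitory drug dose set each day. Compounds were tested on five- or nine-point 2-fold gradients in two dye-swapped replicates. DsRed (540/590) and GFP (485/520) signals were scaled per plate between the medians of single-strain controls, and No Treatment was then set to 0.5. For each strain, IC50 was taken as the dose that halved the No Treatment signal, or else the maximal signal.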

[2] = tested on: Staphylococcus aureus MW2 delta-mecA (mecA-); experiment: IC50 (growth, competition assay); conditions: cefoxitin: subinhibitory
How it was run: as §1

| Structure (SMILES) | IC50 ([1]; fluorescent label: DsRed) | IC50 ([1]; fluorescent label: GFP) | IC50 ([2]; fluorescent label: DsRed) | IC50 ([2]; fluorescent label: GFP) |
| --- | --- | --- | --- | --- |
| CCOc1ccc2ccccc2c1C(=O)N[C@@H]1C(=O)N2[C@@H]1SC(C)(C)[C@@H]2C(=O)O [Nafcillin Sodium] | < 9.85 µM | < 9.85 µM | < 9.85 µM | < 9.85 µM |
| CCn1cc(C(=O)O)c(=O)c2ccc(C)nc21 [Nalidixic acid (NegGram)] | 99.9 µM and 57.2 µM | 110 µM and 57.2 µM | 31.2 µM and 18.4 µM | 17.2 µM and 16.7 µM |
| CCn1cc(C(=O)O)c(=O)c2ccc(C)nc21 [Nalidixic acid sodium] | 34 µM | 29.8 µM | 17.2 µM | 16.2 µM |
| OC(CNCC(O)C1CCc2cc(F)ccc2O1)C1CCc2cc(F)ccc2O1 (stereo not given) [Nebivolol] | 108 µM | 111 µM | 35 µM | 19.6 µM |
| O=C(Nc1ccc([N+](=O)[O-])cc1Cl)c1cc(Cl)ccc1O [Niclosamide] | 113 µM | < 9.85 µM | < 9.85 µM | 73.8 µM |
| O=C(O)c1cccnc1Nc1cccc(C(F)(F)F)c1 [Niflumic acid] | 18.5 µM | 21.4 µM | 25.8 µM | 32.3 µM |
| COC(=O)C1=C(C)NC(C)=C(C(=O)OCC(C)C)C1c1ccccc1[N+](=O)[O-] (stereo not given) [Nisoldipine] | 63.1 µM | 99.2 µM | 12.7 µM | 7.55 µM |
| CC(=O)Oc1ccccc1C(=O)Nc1ncc([N+](=O)[O-])s1 [Nitazoxanide (Alinia, Annita)] | 55.5 µM | 57.6 µM | 21.9 µM | 24.9 µM |
| COC(=O)Nc1nc2cc(C(=O)c3cccs3)ccc2[nH]1 [Nocodazole] | 24.4 µM | 29 µM | < 9.85 µM | < 9.85 µM |
| CCn1cc(C(=O)O)c(=O)c2cc(F)c(N3CCNCC3)cc21 [Norfloxacin (Norxacin)] | 0.816 µM | 0.772 µM | < 0.498 µM | < 0.498 µM |
| COC1=CC(=O)C(O)=C/C1=C\C=C\c1ccccc1 [OBTUSAQUINONE] | < 9.85 µM | < 9.85 µM | < 9.85 µM | < 9.85 µM |
| Cc1cc(CC(C)CC(C)(C)C)n(O)c(=O)c1 (stereo not given) [OCTOPIROX] | 120 µM | 106 µM | 89.5 µM | 70 µM |
| C=CC1=C(C(=O)O)N2C(=O)[C@@H](NC(=O)/C(=N\O)c3csc(N)n3)[C@H]2SC1 [OMNICEF] | < 9.85 µM | < 9.85 µM | < 9.85 µM | < 9.85 µM |
| C[C@@H]1CN(c2c(F)c(F)c3c(=O)c(C(=O)O)cn(C4CC4)c3c2F)C[C@H](C)N1 [ORBAX] | < 9.85 µM | 15.1 µM | 17.8 µM | < 9.85 µM |
| CN(C(=O)CN(CCO)CC(=O)N(C)C(C)(C)Cc1ccccc1)C(C)(C)Cc1ccccc1 [OXETHAZAINE] | 103 µM | 111 µM | 40.2 µM | 30.5 µM |
| Clc1ccc(CO/N=C(\Cn2ccnc2)c2ccc(Cl)cc2Cl)c(Cl)c1 [OXISTAT] | 35.3 µM | 43.3 µM | 30.4 µM | 17.3 µM |
| CC1COc2c(N3CCN(C)CC3)c(F)cc3c(=O)c(C(=O)O)cn1c23 (stereo not given) [Ofloxacin] | < 9.85 µM | < 9.85 µM | < 9.85 µM | < 9.85 µM |
| C=C1C(=O)[C@]23[C@H](O)[C@H]1CC[C@H]2[C@@]12CO[C@]3(O)[C@@H](O)[C@@H]1C(C)(C)CC[C@@H]2O [Oridonin (Isodonol)] | 29.5 µM | 51.5 µM | 13.7 µM | < 9.85 µM |
| CCCCCCCCOc1ccccc1C(=O)Nc1ccc(C(=O)OCC[N+](C)(CC)CC)cc1 [Otilonium Bromide] | < 9.85 µM | < 9.85 µM | < 9.85 µM | < 9.85 µM |
| Cc1onc(-c2ccccc2)c1C(=O)N[C@@H]1C(=O)N2[C@@H]1SC(C)(C)[C@@H]2C(=O)O [Oxacillin sodium monohydrate] | < 9.85 µM | < 9.85 µM | < 9.85 µM | < 9.85 µM |
| CCn1cc(C(=O)O)c(=O)c2cc3c(cc21)OCO3 [Oxolinic acid] | 18.3 µM | 16.1 µM | 15.1 µM | 14.6 µM |
| O=C1C=C2C(=CCOC2O)O1 (stereo not given) [PATULIN] | 18.9 µM | 26.9 µM | < 9.85 µM | < 9.85 µM |
| C[C@H]1COc2c(C3(N)CC3)c(F)cc3c(=O)c(C(=O)O)cn1c23 [PAZUCROSS] | < 9.85 µM | < 9.85 µM | < 9.85 µM | < 9.85 µM |
| CCn1cc(C(=O)O)c(=O)c2cc(F)c(N3CCN(C)CC3)cc21 [PEFLOXACINE MESYLATE] | < 9.85 µM | < 9.85 µM | < 9.85 µM | < 9.85 µM |
| CCn1cc(C(=O)O)c(=O)c2cc(F)c(N3CCNCC3)nc21 [PENETREX] | < 9.85 µM | < 9.85 µM | < 9.85 µM | < 9.85 µM |
| CC(=O)OCC(=O)[C@H]1CC[C@H]2[C@@H]3CCC4=CC(=O)CC[C@]4(C)[C@H]3CC[C@]12C [PERCOTEN] | 144 µM | 62.6 µM | 26.6 µM | > 150 µM |
| C[C@H]1c2cccc(O)c2C(=O)C2=C(O)[C@]3(O)C(=O)C(C(N)=O)=C(O)[C@@H](N(C)C)[C@@H]3[C@@H](O)[C@@H]21 [PERIOSTAT] | < 9.85 µM | < 9.85 µM | < 9.85 µM | < 9.85 µM |
| CC(C)(C)CC(C)(C)c1ccc(OCCOCC[N+](C)(C)Cc2ccccc2)cc1 [PHEMERIDE] | < 9.85 µM | < 9.85 µM | < 9.85 µM | < 9.85 µM |
| CCn1cc(C(=O)O)c(=O)c2cnc(N3CCNCC3)nc21 [PIPEDAC] | 38 µM | 60.4 µM | 64.9 µM | 36.5 µM |
| CCN1CCN(C(=O)N[C@@H](C(=O)N[C@@H]2C(=O)N3[C@@H]2SC(C)(C)[C@@H]3C(=O)O)c2ccccc2)C(=O)C1=O [PIPRACIL] | 26.8 µM | 25.2 µM | < 9.85 µM | < 9.85 µM |
